According to patent publication US20250134855A1, “CO[…] AND METHODS OF USING SAME” (LYKOS THERAPEUTICS, INC., priority 2022, published 2025):

Columns and labels:
healthy individuals [1] = test: Study MPKF: ECG / QTcF; type: in vivo, human
Text: Specifically, there was no change in mean QTcF over time above 10 ms at any timepoint.

MDR1 [2] = biological target: T1, MDR1 (Homo sapiens, UniProt P08183); test: Transporter inhibition, MDR1
male and female rats = test: Fertility study, male and female rats; type: in vivo, rat
Protocol: MDMA (0, 2.5, 5, and 10 mg/kg/day) was orally administered to male and female rats before mating. Males were dosed once daily for 28 days prior to pairing and dosing continued until euthanasia. Females were dosed once daily for 21 days prior to pairing and dosing continued though gestational day seven.

human Caco-2 cells = test: Caco-2 permeability
[3] = single 100 mg dose of MDMA (Segura 2005); cited from earlier work
[4] = biological target: organic anion transporter (OAT1) (Homo sapiens, UniProt Q4U2R8); test: Transporter inhibition, OAT1
BCRP = BCRP (Homo sapiens, UniProt Q9UNQ0); test: Transporter inhibition, BCRP; conditions: not told
healthy individuals [5] = test: Study MPKF: SE scores and C-SSRS; parameters: species or system human; conditions: in vivo
Protocol: Those increases from baseline were observed between 0.5 to 4 hours after dosing. […] The other scores remained relatively stable in comparison to baseline across the sessions.

OATP1B1 [6] = biological target: T2, OATP1B1 (Homo sapiens, UniProt Q9Y6L6); test: Transporter inhibition, OATP1B1
MDR1 [7] = biological target: T1, MDR1; test: Transporter substrate assessment, MDR1
OATP1B3 = OATP1B3 (Homo sapiens, UniProt Q9NPD5); test: Transporter substrate assessment, OATP1B3
rats = test: Daily 28-day repeated dose toxicology study, rats; type: in vivo, rat; conditions: 0, 10, 50, or 100 mg/kg/day, daily 28 days
Protocol: Based on negative in vivo and in vitro genotoxicity studies, the carcinogenic risk of MDMA·HCl is low. No tumors were reported after daily 28-day repeated dose toxicology studies of MDMA in rats (0, 10, 50, or 100 mg/kg/day) or dogs (0, 3, 9, or 15 mg/kg/day).

OATP1B1 [8] = biological target: T2, OATP1B1; test: Transporter substrate assessment, OATP1B1
[9] = system: MDMA-AT trial participants (MAPP1 and MAPP2); test: MPLONG long-term follow-up: CAPS-5 durability, responder analysis, relapse; type: in vivo, human
Text: MPLONG is an observational long-term follow-up study for MDMA-AT trial participants intended to provide data on treatment durability as measured by the CAPS-5 and Sheehan Disability Scale (SDS). Participants who elect to enroll in MPLONG completed a LTFU visit at least 6 months following their completion of the parent study. MPLONG opened for enrollment 8 months following the last subject visit of the MAPP1 trial and MAPP1 participants entered MPLONG unblinded to their treatment assignment. Enrollees from the second Phase 3 trial MAPP2, however, complete LTFU with blinding maintained.
A sensitivity analysis was conducted to determine whether there was a detectable difference in the observed trend dependent on the time elapsed since the parent study (Table 47 (Table 47 (Table 47). There was no observable impact of the time window, as durability was maintained in both those with LFTU within a year and those with LTFU greater than 12 months after study termination.

[10] = fasted group, 12-hour timepoint
[11] = LTFU visit, MAPP1 and MAPP2, loss of diagnosis at study termination and ≥10 point increase and meeting PTSD diagnostic criteria at LTFU
[12] = LTFU visit, MAPP1 and MAPP2, remission at study termination and >11 CAPS-5 TSS at LTFU
[13] = LTFU visit, MAPP1 and MAPP2, ≤11 CAPS-5 TSS from BL not meeting PTSD diagnostic criteria at LTFU
[14] = LTFU visit, MAPP1 and MAPP2, ≥10 point reduction in CAPS-5 TSS from BL and ≥10 point increase from study termination at LTFU
[15] = LTFU visit, MAPP1 and MAPP2, ≥10 pt reduction in CAPS-5 TSS from BL and not meeting PTSD diagnostic criteria at LTFU
[16] = LTFU visit, MAPP1 and MAPP2, ≥10 pt reduction in CAPS-5 TSS from BL at study termination and LTFU
[17] = MAPP1 and MAPP2, LTFU 6-12 Months
[18] = MAPP1 and MAPP2, LTFU >12 Months
[19] = MAPP1 and MAPP2, Study Termination (last available assessment in parent study)
[20] = MAPP2 participants only, Long Term Follow Up Study Visit 1
[21] = MPLONG, MAPP1 and MAPP2 participants, Visit 1
[22] = MPLONG, MAPP1 and MAPP2 participants, parent study Baseline
[23] = MPLONG, MAPP1 and MAPP2 participants, parent study Visit 8
[24] = MPLONG, MAPP1 and MAPP2 participants, parent study Visit 13
[25] = MPLONG, MAPP1 and MAPP2 participants, parent study Visit 19
[26] = MPLONG, MAPP2 participants only, parent study Baseline
[27] = MPLONG, MAPP2 participants only, parent study Visit 8
[28] = MPLONG, MAPP2 participants only, parent study Visit 13
[29] = MPLONG, MAPP2 participants only, parent study Visit 19

T1 sequence (P08183 whole entry): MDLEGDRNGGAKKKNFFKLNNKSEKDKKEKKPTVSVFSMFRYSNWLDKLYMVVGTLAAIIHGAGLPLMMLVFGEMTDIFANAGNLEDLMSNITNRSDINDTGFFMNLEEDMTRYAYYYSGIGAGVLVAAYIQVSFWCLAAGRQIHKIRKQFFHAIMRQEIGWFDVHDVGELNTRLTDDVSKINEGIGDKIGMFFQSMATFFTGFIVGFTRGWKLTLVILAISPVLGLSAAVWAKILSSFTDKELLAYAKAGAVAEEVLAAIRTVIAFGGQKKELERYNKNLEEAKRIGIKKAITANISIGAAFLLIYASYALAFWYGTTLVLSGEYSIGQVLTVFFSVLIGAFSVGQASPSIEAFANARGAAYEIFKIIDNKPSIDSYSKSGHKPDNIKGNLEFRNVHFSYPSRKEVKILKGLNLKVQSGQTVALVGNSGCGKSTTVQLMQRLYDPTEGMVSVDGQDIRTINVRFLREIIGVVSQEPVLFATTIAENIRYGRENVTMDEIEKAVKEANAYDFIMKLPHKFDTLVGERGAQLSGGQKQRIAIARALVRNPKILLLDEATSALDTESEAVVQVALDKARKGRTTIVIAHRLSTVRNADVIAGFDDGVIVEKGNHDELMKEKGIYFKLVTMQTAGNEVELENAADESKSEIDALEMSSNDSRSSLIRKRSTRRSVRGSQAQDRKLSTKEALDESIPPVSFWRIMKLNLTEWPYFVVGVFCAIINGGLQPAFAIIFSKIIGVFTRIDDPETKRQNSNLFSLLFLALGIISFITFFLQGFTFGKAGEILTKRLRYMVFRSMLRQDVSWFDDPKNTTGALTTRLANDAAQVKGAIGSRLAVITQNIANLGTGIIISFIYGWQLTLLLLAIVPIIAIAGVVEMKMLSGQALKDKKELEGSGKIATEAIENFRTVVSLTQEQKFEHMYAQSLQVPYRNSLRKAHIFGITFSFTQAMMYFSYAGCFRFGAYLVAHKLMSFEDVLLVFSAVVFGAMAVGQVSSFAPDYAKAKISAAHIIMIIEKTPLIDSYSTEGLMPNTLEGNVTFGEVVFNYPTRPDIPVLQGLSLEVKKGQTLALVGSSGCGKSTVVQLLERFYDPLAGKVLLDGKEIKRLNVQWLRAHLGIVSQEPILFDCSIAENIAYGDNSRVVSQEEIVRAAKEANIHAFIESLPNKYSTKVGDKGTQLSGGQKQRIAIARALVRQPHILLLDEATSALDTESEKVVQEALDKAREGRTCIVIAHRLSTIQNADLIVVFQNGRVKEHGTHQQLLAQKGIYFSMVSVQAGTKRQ
T2 sequence (Q9Y6L6 whole entry): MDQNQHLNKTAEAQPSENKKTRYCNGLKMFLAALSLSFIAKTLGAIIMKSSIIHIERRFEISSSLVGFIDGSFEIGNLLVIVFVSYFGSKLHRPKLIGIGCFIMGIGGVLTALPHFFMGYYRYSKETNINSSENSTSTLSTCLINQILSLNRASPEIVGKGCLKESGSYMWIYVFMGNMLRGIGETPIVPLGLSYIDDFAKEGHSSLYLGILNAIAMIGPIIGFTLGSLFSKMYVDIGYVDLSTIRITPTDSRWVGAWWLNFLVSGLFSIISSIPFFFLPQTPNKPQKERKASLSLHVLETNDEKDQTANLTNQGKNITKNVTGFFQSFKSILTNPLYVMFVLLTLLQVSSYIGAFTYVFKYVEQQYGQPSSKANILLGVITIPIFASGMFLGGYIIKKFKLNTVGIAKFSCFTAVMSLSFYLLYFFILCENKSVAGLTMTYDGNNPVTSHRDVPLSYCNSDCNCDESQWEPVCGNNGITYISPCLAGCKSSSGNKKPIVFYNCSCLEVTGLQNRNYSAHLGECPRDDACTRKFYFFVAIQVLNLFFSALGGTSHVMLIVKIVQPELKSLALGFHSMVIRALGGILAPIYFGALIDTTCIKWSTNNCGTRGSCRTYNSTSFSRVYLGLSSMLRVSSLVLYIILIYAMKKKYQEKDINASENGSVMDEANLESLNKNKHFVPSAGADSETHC
Chain of organic anion transporter (OAT1) (Q4U2R8 whole entry): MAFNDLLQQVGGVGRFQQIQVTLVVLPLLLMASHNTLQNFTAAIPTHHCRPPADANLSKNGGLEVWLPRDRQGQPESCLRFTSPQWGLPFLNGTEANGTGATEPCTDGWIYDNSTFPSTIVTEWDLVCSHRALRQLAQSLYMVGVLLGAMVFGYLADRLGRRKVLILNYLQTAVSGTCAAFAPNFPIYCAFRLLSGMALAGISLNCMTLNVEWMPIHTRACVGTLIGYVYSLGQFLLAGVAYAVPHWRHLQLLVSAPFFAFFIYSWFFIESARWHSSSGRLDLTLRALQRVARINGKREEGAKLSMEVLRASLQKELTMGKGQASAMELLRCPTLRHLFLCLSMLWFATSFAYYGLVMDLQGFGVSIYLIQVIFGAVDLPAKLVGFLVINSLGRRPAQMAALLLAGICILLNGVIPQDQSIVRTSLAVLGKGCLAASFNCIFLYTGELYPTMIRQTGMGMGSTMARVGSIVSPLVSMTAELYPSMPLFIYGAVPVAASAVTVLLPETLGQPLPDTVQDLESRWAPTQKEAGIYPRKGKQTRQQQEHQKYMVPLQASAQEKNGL
Chain of BCRP (Q9UNQ0 whole entry): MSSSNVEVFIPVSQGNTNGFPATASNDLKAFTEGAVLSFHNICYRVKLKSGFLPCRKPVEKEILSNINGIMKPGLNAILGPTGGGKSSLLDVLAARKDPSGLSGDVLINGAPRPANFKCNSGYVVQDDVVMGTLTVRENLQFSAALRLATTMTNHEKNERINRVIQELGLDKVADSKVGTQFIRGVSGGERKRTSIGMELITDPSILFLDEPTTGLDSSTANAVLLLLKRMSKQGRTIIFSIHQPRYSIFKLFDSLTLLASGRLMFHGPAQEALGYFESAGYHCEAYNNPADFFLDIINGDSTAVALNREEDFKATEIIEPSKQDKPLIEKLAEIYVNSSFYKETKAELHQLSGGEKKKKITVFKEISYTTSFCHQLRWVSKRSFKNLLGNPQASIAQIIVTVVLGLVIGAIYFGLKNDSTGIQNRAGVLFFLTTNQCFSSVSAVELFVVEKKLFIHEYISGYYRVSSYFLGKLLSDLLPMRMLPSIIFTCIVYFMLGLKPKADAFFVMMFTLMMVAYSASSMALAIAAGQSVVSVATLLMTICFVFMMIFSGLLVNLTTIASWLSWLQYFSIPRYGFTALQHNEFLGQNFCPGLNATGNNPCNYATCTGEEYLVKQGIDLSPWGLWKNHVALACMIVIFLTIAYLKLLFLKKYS
Chain of OATP1B3 (Q9NPD5 whole entry): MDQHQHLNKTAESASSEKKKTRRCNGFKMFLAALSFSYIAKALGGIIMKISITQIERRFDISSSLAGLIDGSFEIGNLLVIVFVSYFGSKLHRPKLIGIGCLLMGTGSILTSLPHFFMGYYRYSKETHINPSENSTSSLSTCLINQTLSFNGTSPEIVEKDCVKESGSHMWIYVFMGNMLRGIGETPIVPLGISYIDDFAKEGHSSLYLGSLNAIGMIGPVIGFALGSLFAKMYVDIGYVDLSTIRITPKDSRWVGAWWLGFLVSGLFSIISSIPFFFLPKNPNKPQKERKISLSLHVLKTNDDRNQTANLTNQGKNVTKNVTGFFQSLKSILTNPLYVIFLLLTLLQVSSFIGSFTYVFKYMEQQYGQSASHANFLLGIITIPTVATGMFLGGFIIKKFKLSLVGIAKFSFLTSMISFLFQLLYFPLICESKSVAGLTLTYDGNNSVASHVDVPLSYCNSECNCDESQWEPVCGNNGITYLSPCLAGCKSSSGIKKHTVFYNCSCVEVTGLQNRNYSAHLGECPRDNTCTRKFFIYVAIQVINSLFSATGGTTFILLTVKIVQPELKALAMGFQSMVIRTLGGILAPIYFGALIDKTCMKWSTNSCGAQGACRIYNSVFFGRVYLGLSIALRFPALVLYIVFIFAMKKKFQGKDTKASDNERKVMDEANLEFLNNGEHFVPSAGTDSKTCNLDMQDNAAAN

## CNC(C)Cc1ccc2c(c1)OCO2 (centres unmarked) [MDMA, 3,4-methylenedioxymethamphetamine]
Healthy individuals [1]; any timepoint
  change in mean QTcF over time: ≤ 10 ms
Healthy individuals [1]; [10]
  participants with mean QTcF increase from baseline above 30 ms: 6.3%
  participants with mean QTcF increase from baseline above 30 ms, n: 1 participant
Healthy individuals [1]; in vivo
  impact on ECG parameters: no significant impact
Healthy individuals [1]; no participant above, any group
  QTcF intervals: ≤ 450 ms
MDR1 [2]
  inhibition of MDR1: not an inhibitor
Male and female rats; all MDMA-treated males relative to controls
  mean prostate gland weights: decreased
Male and female rats; oral, up to the highest dose evaluated (10 mg/kg/day)
  fertility and reproductive performance: No effect on fertility and reproductive performance
Human Caco-2 cells
  permeability in human Caco-2 cells: highly permeable
[3]
  increase of AUC0-8 hr of paroxetine (20 mg): 3 fold
  increase of Cmax of paroxetine (20 mg): 2.5 fold
[4]
  inhibition of OAT1: not an inhibitor
BCRP
  inhibition of BCRP: not an inhibitor
Healthy individuals [5]
  C-SSRS scores: No abnormal C-SSRS scores
OATP1B1 [6]
  inhibition of OATP1B1: not an inhibitor
MDR1 [7]
  substrate of MDR1: not a substrate
OATP1B3
  substrate of OATP1B3: not a substrate
rats
  tumors: No tumors
OATP1B1 [8]
  substrate of OATP1B1: not a substrate
[9]; [11]
  Relapse after Loss of Diagnosis, Does not meet criteria, %: (93.8) %
  Relapse after Loss of Diagnosis, Meets criteria, %: (6.2) %
[9]; [12]
  Relapse of Remission, Does not meet criteria, %: (95.4) %
  Relapse of Remission, Meets criteria, %: (4.6) %
[9]; [13]
  Durable Remission, Does not meet criteria, %: (40.0) %
  Durable Remission, Meets criteria, %: (60.0) %
[9]; [14]
  Relapse after Treatment Response, Does not meet criteria, %: (93.8) %
  Relapse after Treatment Response, Meets criteria, %: (6.2) %
[9]; [15]
  Durable Loss of Diagnosis, Does not meet criteria, %: (16.9) %
  Durable Loss of Diagnosis, Meets criteria, %: (83.1) %
[9]; [16]
  Durable Treatment Response, Does not meet criteria, %: (10.8) %
  Durable Treatment Response, Meets criteria, %: (89.2) %
[9]; MAPP1 and MAPP2
  loss of diagnosis at LTFU: 83.1%
  met the definition of treatment response at LTFU: 89.2%
  relapse following remission: 4.6%
  relapse following treatment response or loss of diagnosis: 12.3%
  remission at LTFU: 60%
[9]; [17]
  CAPS-5 Total Severity Score, Actual, Mean: 11.9
  CAPS-5 Total Severity Score, Actual, Median: 9.0
  CAPS-5 Total Severity Score, Change from Study Termination, Mean: −3.7
  CAPS-5 Total Severity Score, Change from Study Termination, Median: −2.5
[9]; [18]
  CAPS-5 Total Severity Score, Actual, Mean: 11.2
  CAPS-5 Total Severity Score, Actual, Median: 6.0
  CAPS-5 Total Severity Score, Change from Study Termination, Mean: −5.9
  CAPS-5 Total Severity Score, Change from Study Termination, Median: −5.0
[9]; [19]
  CAPS-5 Total Severity Score, Actual, Mean: 16.4
  CAPS-5 Total Severity Score, Actual, Median: 15.0
[9]; MAPP2 parent study
  mean change from baseline (CFB) in CAPS-5 scores at LTFU: −28.7
[9]; [20]
  CAPS-5 Total Severity Score, Actual, Mean: 10.7
  CAPS-5 Total Severity Score, Actual, Median: 8.5
  CAPS-5 Total Severity Score, CFB, Mean: −28.7
  CAPS-5 Total Severity Score, CFB, Median: −30.5
[9]; [21]
  CAPS-5 Total Severity Score, Actual, Mean: 11.5
  CAPS-5 Total Severity Score, Actual, Median: 8.0
  CAPS-5 Total Severity Score, CFB, Mean: −29.2
  CAPS-5 Total Severity Score, CFB, Median: −31.0
[9]; [22]
  CAPS-5 Total Severity Score, Actual, Mean: 40.8
  CAPS-5 Total Severity Score, Actual, Median: 40.0
[9]; [23]
  CAPS-5 Total Severity Score, Actual, Mean: 29.5
  CAPS-5 Total Severity Score, Actual, Median: 31.0
  CAPS-5 Total Severity Score, CFB, Mean: −11.3
  CAPS-5 Total Severity Score, CFB, Median: −12.0
[9]; [24]
  CAPS-5 Total Severity Score, Actual, Mean: 22.0
  CAPS-5 Total Severity Score, Actual, Median: 23.0
  CAPS-5 Total Severity Score, CFB, Mean: −18.8
  CAPS-5 Total Severity Score, CFB, Median: −19.0
[9]; [25]
  CAPS-5 Total Severity Score, Actual, Mean: 15.9
  CAPS-5 Total Severity Score, Actual, Median: 14.0
  CAPS-5 Total Severity Score, CFB, Mean: −24.8
  CAPS-5 Total Severity Score, CFB, Median: −27.0
[9]; [26]
  CAPS-5 Total Severity Score, Actual, Mean: 39.4
  CAPS-5 Total Severity Score, Actual, Median: 38.5
[9]; [27]
  CAPS-5 Total Severity Score, Actual, Mean: 28.1
  CAPS-5 Total Severity Score, Actual, Median: 30.5
  CAPS-5 Total Severity Score, CFB, Mean: −11.3
  CAPS-5 Total Severity Score, CFB, Median: −12.0
[9]; [28]
  CAPS-5 Total Severity Score, Actual, Mean: 19.7
  CAPS-5 Total Severity Score, Actual, Median: 18.0
  CAPS-5 Total Severity Score, CFB, Mean: −19.8
  CAPS-5 Total Severity Score, CFB, Median: −22.0
[9]; [29]
  CAPS-5 Total Severity Score, Actual, Mean: 14.8
  CAPS-5 Total Severity Score, Actual, Median: 12.0
  CAPS-5 Total Severity Score, CFB, Mean: −24.5
  CAPS-5 Total Severity Score, CFB, Median: −27.0
